Like-named read-outs stand apart in the source and are kept apart here.
Columns and labels:
[1] = biological target: T1, 5-HT7 (h) (Homo sapiens, UniProt P34969); test: Competition assay to measure binding affinity at 5-HT7 receptor; settings: test ligand 10 μM; [3H]LSD 4 nM
T1 construct: host or cells: HEK-293 cells

[2] = biological target: 5-HT2A receptor (Homo sapiens, UniProt P28223); test: 5-HT2A receptor radioligand competition assay (SPA)
[3] = biological target: T2, human serotonin transporter (SERT) (Homo sapiens, UniProt P31645); test: biochemical; assay type: binding
T2 construct: purchased PerkinElmer RBHSTM400UA

[4] = test system: C57BL/6-Elite male and female mice; test: Head Twitch Response (HTR) assay; assay type: in vivo, mouse; settings: i.p. 6 mg/kg, 15-to-30-minute window following drug administration
[5] = biological target: T3, 5-HT1B (h) (Homo sapiens, UniProt P28222); test: Competition assay to measure binding affinity at 5-HT1B receptor; settings: test ligand 10 μM; [3H]GR125743 1 nM
T3 construct: host or cells: Chem-1 (RBL) cells

[6] = biological target: T4, 5-HT2C (h) (Homo sapiens, UniProt P28335); test: Competition assay to measure binding affinity at 5-HT2C receptor; settings: test ligand 10 μM; [125I](±)DOI 0.1 nM
T4 construct: host or cells: HEK-293 cells
T4 sequence (P28335 33-458): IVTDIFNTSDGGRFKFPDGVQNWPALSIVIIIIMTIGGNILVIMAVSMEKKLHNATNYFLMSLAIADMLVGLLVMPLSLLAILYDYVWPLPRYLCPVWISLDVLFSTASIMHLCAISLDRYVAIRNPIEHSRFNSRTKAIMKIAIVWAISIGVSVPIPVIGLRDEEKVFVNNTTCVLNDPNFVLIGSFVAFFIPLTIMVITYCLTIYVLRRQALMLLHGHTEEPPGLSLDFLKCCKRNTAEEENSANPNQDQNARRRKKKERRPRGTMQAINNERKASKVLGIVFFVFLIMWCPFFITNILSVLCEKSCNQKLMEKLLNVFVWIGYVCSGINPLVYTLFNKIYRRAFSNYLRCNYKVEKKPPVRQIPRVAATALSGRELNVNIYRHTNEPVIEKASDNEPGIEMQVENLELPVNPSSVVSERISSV

[7] = test system: C57BL/6-Elite male and female mice; test: Ear-Scratch Response (ESR) assay; assay type: in vivo, mouse; settings: i.p. 6 mg/kg, 15-to-30-minute window following drug administration
[8] = biological target: T5, alpha2A (h) (Homo sapiens, UniProt P08913); test: Competition assay to measure binding affinity at alpha2A receptor; settings: test ligand 10 μM, [3H]RX 821002 1 nM; for inhibition at 10 µM: read-out: α-2A, percent of control-specific binding
T5 construct: host or cells: CHO cells
T5 sequence (P08913 1-465): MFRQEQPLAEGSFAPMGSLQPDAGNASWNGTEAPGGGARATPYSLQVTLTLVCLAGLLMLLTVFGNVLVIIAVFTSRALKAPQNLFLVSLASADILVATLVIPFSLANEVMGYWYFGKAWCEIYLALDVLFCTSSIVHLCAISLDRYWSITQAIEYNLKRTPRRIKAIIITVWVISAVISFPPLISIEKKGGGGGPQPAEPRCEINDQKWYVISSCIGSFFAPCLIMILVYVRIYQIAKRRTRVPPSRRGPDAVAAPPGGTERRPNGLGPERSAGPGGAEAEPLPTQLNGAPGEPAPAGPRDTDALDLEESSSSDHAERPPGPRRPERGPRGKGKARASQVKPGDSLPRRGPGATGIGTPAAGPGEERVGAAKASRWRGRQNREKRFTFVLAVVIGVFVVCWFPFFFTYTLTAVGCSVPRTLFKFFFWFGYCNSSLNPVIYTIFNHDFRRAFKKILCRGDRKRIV

[9] = biological target: T6, 5-HT1A receptor (Homo sapiens, UniProt P08908); test: 5-HT1A receptor radioligand competition assay (SPA); assay type: binding; settings: for 5-HT1A receptor binding, binding curve in words: FIGS. 35C-35L
T6 construct: purchased Perkin Elmer 6110501400UA
T6 sequence (P08908 1-422): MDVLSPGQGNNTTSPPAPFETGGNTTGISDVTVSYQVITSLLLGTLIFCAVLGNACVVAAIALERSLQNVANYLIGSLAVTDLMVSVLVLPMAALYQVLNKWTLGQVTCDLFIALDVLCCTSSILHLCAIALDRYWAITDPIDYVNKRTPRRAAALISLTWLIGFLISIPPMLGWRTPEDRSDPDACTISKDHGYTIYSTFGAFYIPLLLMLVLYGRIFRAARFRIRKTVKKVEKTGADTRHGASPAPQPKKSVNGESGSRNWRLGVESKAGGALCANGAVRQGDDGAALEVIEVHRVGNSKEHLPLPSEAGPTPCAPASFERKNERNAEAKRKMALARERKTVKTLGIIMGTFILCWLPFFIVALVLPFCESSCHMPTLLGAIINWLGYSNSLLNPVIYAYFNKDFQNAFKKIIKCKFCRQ

[10] = biological target: T7, 5-HT1D (r) (Rattus norvegicus, UniProt P28565); test: Competition assay to measure binding affinity at 5-HT1D receptor; settings: test ligand 10 μM; [3H]serotonin 1 nM
T7 construct: host or cells: CHO cells

[11] = biological target: T8, D3 (h) (Homo sapiens, UniProt P35462); test: Competition assay to measure binding affinity at D3 receptor; settings: test ligand 10 μM; [3H]methylspiperone […]
T8 construct: host or cells: CHO cells

[12] = biological target: T9, MT1 (ML1A) (h) (Homo sapiens, UniProt P48039); test: Competition assay to measure binding affinity at MT1 receptor; settings: test ligand 10 μM; [125I]2-iodomelatonin 0.01 nM
T9 construct: host or cells: CHO cells

[13] = biological target: T10, NET (h) (Homo sapiens, UniProt P23975); test: Competition assay to measure binding affinity at norepinephrine transporter (NET); settings: test ligand 10 μM; [3H]nisoxetine 1 nM
T10 construct: host or cells: CHO cells

[14] = biological target: T11, DAT (h) (Homo sapiens, UniProt Q01959); test: Competition assay to measure binding affinity at dopamine transporter (DAT); settings: test ligand 10 μM; [3H]BTCP 4 nM
T11 construct: host or cells: CHO cells

[15] = biological target: T12, D2 (h) (Homo sapiens, UniProt P14416); test: Competition assay to measure binding affinity at D2L receptor; settings: test ligand 10 μM; [3H]methylspiperone 0.3 nM
T12 construct: host or cells: HEK-293 cells

[16] = biological target: T13, 5-HT2B (h) (Homo sapiens, UniProt P41595); test: Competition assay to measure binding affinity at 5-HT2B receptor; settings: test ligand 10 μM; [3H]mesulergine 2 nM
T13 construct: host or cells: CHO cells

[17] = test system: Human NT2/D1 precursor cells (NT2/D1); test: Neuroplastogenicity assay using human model (NT2) neurons; assay type: cell-based; settings: RA-treated NT2 cells, 1 μM, 48 hours, vs 0.1% DMSO
Description: The compound with formula A(XXXII) was assayed for neuroplastogenic potential using the following procedure. Human NT2/D1 precursor cells (NT2/D1) were purchased from the American Type Culture Collection (ATCC, Manassas, VA, USA). The neuronal differentiation was carried out as previously described (Roloff et al., 2015, PLOS ONE e0118536:1-14; Roloff et al., 2013, BMC Neuroscience 14:141-155) with minor modifications. First, NT2/D1 cells were seeded in T-25 suspension culture flasks (REF #690190, Greiner bio-one, Germany). Each flask contained a minimum of 5×10^6 cells in 10 ml of DMEM/F12 supplemented with 10% fetal bovine serum (FBS), 1% penicillin and streptomycin and 10 μM retinoic acid (RA medium) to start neuronal differentiation. The cells were cultured for 3 days in free floating medium. At the end of the incubation, cells were trypsinized and collected by centrifugation, mechanically dispersed, and counted. Counted cells were seeded on Poly D-Lysine (PDL) coated cover slips (12 mm; diameter round, Fisher Scientific; GG-12-PDL) containing minimum of 0.1×10^5 cells in culture medium without RA. The next day, culture medium was replaced with RA medium containing 2% of FBS. These cells were cultured for 5 days, with a change of RA medium two days later. For the neuronal outgrowth assay, after cells had successfully attached and established under coverslips, the RA medium was replaced with one of the following: (1) test molecules at one of two different concentrations (10 μm or 1 μm); (2) positive control ROCK inhibitor Y-27632, (Dihydrochloride, Sigma-Aldrich); (2) positive control ibuprofen (14883-1G; Sigma-Aldrich), or (4) negative control culture medium containing 2% of FBS. Cells under these conditions were incubated for 48 hours under standard conditions (37° C., 5% CO2) in an incubator prior to the immunofluorescent assay.
For the immunofluorescent assay, the treated cells housed under coverslips were collected after 48 hours of drug treatments. These coverslips washed with calcium chloride-free and magnesium chloride-free phosphate buffered saline (PBS) pH 7.4 (Gibco, #70011-044) and fixed using paraformaldehyde (PFA) 4% in PBS (#J61899, thermoscientific) for 15 min at room temperature (RT) and washed three times with 0.01% of Triton-X100 in PBS (PBST) to remove remaining PFA and to permeabilize the cells. Unspecific binding sites were blocked with 5% Bovine Serum Albumin (BSA) solution (#9048-46-8, Millipore) in PBST for 60 minutes at RT. Rabbit monoclonal antibody β-III-Tubulin (1:5,000, ab52623, Abcam) was applied overnight (O/N) at 4° C. […] Finally, the immunofluorescence images were detected by using Olympus VS110 slide scanner microscope. […]

[18] = competition with 0.5 nM 8-hydroxy-DPAT [3H], test compound 3 nM to 1 mM, read-out: 5-HT1A, Ki

Sequence of 5-HT2A receptor (P28223 whole entry): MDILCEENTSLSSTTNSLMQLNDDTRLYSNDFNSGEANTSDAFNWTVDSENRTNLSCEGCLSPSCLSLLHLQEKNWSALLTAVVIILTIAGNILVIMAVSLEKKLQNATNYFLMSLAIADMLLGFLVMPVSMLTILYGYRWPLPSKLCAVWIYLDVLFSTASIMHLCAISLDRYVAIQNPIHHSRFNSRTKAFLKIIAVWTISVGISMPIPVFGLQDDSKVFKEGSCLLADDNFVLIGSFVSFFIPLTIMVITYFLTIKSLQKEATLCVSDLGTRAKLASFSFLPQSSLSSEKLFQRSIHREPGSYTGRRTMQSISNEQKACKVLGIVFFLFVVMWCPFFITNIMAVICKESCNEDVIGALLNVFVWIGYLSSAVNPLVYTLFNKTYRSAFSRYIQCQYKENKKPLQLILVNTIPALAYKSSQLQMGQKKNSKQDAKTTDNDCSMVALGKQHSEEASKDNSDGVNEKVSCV
T13 sequence (P41595 whole entry): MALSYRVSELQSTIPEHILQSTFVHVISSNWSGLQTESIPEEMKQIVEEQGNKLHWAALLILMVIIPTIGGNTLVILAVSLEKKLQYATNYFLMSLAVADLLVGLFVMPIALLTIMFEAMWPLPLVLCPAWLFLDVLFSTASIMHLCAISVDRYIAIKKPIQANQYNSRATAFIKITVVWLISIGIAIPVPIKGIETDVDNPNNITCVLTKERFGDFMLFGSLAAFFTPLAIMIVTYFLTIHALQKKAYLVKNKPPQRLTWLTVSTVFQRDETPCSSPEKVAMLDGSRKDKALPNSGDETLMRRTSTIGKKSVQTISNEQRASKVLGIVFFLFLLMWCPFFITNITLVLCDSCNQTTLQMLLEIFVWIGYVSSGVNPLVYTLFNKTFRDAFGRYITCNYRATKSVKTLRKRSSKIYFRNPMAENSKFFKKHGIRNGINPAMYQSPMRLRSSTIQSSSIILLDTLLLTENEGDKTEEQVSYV
T8 sequence (P35462 whole entry): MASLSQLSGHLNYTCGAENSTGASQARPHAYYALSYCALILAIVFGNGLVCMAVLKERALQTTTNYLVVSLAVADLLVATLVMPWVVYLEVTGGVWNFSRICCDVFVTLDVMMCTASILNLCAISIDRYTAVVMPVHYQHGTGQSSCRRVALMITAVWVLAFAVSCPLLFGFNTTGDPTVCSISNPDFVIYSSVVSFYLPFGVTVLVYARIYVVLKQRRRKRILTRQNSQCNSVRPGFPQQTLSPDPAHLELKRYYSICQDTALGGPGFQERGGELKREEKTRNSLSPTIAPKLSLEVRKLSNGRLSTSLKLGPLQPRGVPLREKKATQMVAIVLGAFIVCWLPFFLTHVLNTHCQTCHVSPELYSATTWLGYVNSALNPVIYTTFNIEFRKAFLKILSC
T3 sequence (P28222 whole entry): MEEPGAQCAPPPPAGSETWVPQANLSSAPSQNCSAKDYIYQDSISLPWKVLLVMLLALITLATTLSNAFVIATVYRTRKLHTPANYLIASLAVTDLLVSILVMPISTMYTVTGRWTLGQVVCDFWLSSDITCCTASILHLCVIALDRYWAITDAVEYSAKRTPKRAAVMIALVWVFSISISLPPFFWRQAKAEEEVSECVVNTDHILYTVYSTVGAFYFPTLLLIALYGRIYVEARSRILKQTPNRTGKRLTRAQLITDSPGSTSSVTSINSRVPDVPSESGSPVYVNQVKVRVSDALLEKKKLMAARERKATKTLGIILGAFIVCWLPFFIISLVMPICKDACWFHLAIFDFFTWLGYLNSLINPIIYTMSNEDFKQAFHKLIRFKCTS
T9 sequence (P48039 whole entry): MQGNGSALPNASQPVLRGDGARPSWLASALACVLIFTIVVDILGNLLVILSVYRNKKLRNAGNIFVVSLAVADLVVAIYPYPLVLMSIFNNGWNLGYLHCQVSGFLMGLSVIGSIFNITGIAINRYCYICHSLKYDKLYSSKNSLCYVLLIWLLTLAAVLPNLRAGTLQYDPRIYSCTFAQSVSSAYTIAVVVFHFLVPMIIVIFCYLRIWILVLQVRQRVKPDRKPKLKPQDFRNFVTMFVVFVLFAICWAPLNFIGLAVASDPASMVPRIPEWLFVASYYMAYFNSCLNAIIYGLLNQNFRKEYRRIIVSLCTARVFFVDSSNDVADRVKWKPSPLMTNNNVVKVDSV
T12 sequence (P14416 whole entry): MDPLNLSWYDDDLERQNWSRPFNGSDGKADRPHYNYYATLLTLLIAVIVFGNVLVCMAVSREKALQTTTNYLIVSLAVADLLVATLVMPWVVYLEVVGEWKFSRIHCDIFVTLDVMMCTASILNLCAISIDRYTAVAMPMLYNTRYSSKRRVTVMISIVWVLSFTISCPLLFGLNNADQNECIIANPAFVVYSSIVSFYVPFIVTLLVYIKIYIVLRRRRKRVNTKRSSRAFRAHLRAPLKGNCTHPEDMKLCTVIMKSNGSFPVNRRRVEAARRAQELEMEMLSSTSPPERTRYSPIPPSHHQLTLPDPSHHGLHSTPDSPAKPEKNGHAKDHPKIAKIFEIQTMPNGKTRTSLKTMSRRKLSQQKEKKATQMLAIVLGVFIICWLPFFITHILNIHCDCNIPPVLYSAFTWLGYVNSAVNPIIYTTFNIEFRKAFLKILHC
T7 sequence (P28565 whole entry): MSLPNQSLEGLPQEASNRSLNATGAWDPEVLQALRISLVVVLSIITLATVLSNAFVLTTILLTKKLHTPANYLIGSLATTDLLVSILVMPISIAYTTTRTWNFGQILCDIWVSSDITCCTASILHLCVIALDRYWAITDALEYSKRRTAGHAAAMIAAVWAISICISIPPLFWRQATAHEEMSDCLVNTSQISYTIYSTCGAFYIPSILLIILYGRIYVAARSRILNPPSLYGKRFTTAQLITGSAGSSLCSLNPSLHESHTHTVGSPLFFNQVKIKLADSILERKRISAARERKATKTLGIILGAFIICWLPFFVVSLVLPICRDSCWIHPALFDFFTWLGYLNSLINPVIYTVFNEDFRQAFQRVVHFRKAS
T10 sequence (P23975 whole entry): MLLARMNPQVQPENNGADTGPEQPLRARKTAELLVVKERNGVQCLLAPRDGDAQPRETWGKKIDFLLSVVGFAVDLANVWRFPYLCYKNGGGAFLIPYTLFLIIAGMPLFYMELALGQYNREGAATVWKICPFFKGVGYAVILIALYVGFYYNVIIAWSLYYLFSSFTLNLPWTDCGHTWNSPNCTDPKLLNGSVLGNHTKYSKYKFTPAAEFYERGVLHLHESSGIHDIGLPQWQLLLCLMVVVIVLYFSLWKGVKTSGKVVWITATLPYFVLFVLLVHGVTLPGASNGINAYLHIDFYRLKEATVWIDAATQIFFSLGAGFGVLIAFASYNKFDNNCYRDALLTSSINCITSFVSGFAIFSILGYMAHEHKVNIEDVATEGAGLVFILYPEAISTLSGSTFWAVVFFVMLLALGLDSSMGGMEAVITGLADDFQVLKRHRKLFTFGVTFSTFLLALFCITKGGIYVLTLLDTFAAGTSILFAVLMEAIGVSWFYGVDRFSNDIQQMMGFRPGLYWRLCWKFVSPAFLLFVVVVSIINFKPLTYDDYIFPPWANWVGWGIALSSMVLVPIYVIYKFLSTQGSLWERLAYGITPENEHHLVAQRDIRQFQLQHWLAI
T1 sequence (P34969 whole entry): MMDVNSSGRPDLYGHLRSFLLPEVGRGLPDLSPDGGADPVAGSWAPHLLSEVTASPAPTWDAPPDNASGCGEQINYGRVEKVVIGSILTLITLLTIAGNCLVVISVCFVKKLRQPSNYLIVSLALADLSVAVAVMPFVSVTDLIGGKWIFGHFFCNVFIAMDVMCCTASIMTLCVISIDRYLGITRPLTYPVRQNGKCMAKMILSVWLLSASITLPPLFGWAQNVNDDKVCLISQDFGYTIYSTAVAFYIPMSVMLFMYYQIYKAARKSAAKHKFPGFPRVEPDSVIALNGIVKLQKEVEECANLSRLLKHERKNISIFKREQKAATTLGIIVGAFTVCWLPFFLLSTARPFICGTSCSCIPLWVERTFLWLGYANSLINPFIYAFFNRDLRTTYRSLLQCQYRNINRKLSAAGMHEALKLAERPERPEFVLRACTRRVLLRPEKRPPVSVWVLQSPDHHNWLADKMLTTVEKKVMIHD
T11 sequence (Q01959 whole entry): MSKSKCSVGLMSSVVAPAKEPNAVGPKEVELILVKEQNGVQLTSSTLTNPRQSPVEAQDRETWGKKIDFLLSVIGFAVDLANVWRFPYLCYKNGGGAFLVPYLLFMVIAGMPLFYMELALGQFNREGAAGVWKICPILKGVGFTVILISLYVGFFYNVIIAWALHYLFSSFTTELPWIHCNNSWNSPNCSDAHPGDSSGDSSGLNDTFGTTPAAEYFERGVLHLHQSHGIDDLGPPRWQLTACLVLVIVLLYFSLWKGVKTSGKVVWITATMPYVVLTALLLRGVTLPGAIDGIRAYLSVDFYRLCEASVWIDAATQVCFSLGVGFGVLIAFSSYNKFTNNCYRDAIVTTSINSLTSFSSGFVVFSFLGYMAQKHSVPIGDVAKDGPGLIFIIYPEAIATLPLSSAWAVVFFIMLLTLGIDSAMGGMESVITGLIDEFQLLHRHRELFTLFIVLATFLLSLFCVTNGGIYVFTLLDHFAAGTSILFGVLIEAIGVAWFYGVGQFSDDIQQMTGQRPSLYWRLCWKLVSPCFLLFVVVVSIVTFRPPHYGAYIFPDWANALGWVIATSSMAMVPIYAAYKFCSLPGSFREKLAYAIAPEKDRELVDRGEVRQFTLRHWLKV

Row | Compound | HT7, percent of control-specific binding [1] [%] | Ki [2] [µM] | Ki [3] [µM] | incidences of HTR relative to vehicle-treated control mice [4] | HT1B, percent of control-specific binding [5] [%] | HT2C, percent of control-specific binding [6] [%] | incidences of ESR relative to vehicle-treated control mice [7] | inhibition at 10 µM [8] [%] | Ki [9, 18] [µM] | HT1D, percent of control-specific binding [10] [%] | D3, percent of control-specific binding [11] [%] | MT1, percent of control-specific binding [12] [%] | NET, percent of control-specific binding [13] [%] | DAT, percent of control-specific binding [14] [%] | D2, percent of control-specific binding [15] [%] | HT2B, percent of control-specific binding [16] [%] | neurite outgrowth (β-III-tubulin immunofluorescence) compared to negative control [17] | SERT binding, binding curve in words [3] | 5-HT1A receptor binding, binding curve in words [9] | other results
1 | c1cc2c(cc1CCN1CCOCC1)OCO2 [A(VII)] | 14 | 6 | 29.9 | Elevated incidences of HTR | 0 | 4 | Elevated incidences of ESR | 5 | 24.1 | 0 | 4 | 0 | 0 | 18 | 3 | 12 |  |  |  | 
2 | CC(Cc1ccc2c(c1)OCO2)NC1CCC1 (stereo not shown) [A(I)] | 5 | 517 | 1.1 | Elevated incidences of HTR | 0 | 28 | Elevated incidences of ESR | 35 |  | 0 | 24 | 2 | 62 | 98 | 15 | 37 |  |  |  | Ki [9]: 20.8 µM
3 | C[C@@H](N)[C@H]1CC[C@H](C(=O)Nc2ccncc2)CC1 [Y-27632, reference compound] |  |  |  |  |  |  |  |  |  |  |  |  |  |  |  |  | strong signs of neurite outgrowth |  |  | 
4 | CCCOc1c(OC)cc(CCN)cc1OC [proscaline, reference compound] |  |  | 251 | Elevated incidences of HTR | −13 | 97 | Elevated incidences of ESR | 40 |  | 25 | 4 | 3 | −9 | −2 | −11 | 85 |  | bind SERT to varying degrees | binding to 5-HT1A receptor | 
5 | CC(Cc1ccc2c(c1)OCO2)NCCc1c[nH]c2ccccc12 (stereo not shown) [A(XXXI)] |  |  |  |  |  |  |  |  |  |  |  |  |  |  |  |  | strong signs of neurite outgrowth |  |  | 
6 | CCOc1c(OC)cc(CCN)cc1OC [escaline] | 16 |  |  | Elevated incidences of HTR | 0 | 95 | Elevated incidences of ESR |  | 12.4 | 42 | 0 | 0 | 6 | 0 | 5 | 81 |  | bind SERT to varying degrees | binding to 5-HT1A receptor | Ki ([2]; read-out: 5-HT2A, Ki, competition with 1 nM [3H]ketanserin, test compound 3 nM to 1 mM): 61 µM; Ki ([3]; read-out: SERT, Ki): 113 µM; α-2A, percent of control-specific binding [8]: 45%
